According to US11446402B2, “Composition for material delivery, including exosome mimetics derived from red blood cells, and use thereof” (Kyungpook National University Industry—Academic Cooperation …, priority 2018, dated 2022):

Assays:
[1] = In vivo gamma camera imaging after tail vein infusion; parameters: species or system C57BL/6 mice
Protocol: In vivo gamma camera imaging was performed on 5-week-old male C57BL/6 mice (Hamamatsu, Shizuoka). The gamma camera images were captured and taken for 10 min using a 2 mm pinhole collimator (Infinia II, GE Healthcare, Milwaukee, Wis., USA). A 200 μl volume of 37 MBq ^99mTC-RBC-EM was infused into the tail vein of mice. As a control, the same amount of free ^99mTc was infused. During the imaging, mice were continuously anesthetized using 2.5% isoflurane (Merial, Lyon, France). The gamma camera images were obtained by capturing the gamma camera images 1 hour and 3 hours after infusing ^99mTc-RBC-EM and free ^99mTc.
The region of interests (ROIs) in mice into which free ^99mTc was infused were the thyroid gland and the stomach, and the region of interests (ROIs) in mice into which ^99mTc-RBC-EM was infused were the thyroid gland and the liver/spleen. The right thigh part was used as a control of ROI. The average ROI count per pixel was calculated by dividing the same mice by the control ROI.

8505C cells = experiment: Labeling of tumor cells with ^99mTc, uptake by gamma-counter; assay type: cell-based, human; conditions: 4 μCi
Protocol: A human atypical thyroid carcinoma 8505C cell line (Deutsche Sammlung von Mikroorganismen and Zellkulturen (DSMZ)) was cultured under a humidified atmosphere of 5% CO2 at 37° C. in Dulbecco's Modified Eagle Medium (DMEM, Invitrogen, Grand Island, N.Y., USA) supplemented with 10% fetal bovine serum (FBS), 10 U/ml penicillin, and 10 μg/ml streptomycin (Invitrogen). The 8505C cells were cultured together with ^99mTc-RBC-EM with various doses (0, 1, 2, and 4 μCi). 24 hours later, free ^99mTc-RBC-EM, which had not been absorbed in cells, were washed using PBS. Thereafter, the 8505C cells were cultured in a 20% FBS solution in a 37° C. CO2 incubator for 1, 6, 12, and 18 hours. The uptake values were measured by a gamma-counter (Cobra II, 1 Hewlett Packard, USA) at all the time points, and the amount of radiation measured was shown as a count per minute (cpm) unit. In order to compare the aforementioned results with the results of ^99mTc-RBC-EM (4 μCi), it was measured whether tumor cells were labeled with ^99mTc-RBC-EM using free ^99mTc (4 μCi).

[99Tc] [free ^99mTc, technetium-99m]
organs of uptake in gamma camera image ([1]; 1 hour after injection, intravenous): strong uptake of free ^99mTc in the thyroid gland, the stomach, and the bladder | uptake in regions of interest 3 hours after the infusion compared to 1 hour ([1]; free ^99mTc: thyroid gland and stomach, ^99mTc-RBC-EM: thyroid gland, liver, spleen): significantly (P<0.001) increased | absorption in 8505C cells (8505C cells): rarely absorbed | absorption in 8505C cells as the time is increased (8505C cells): not increased
